Five compounds from patent publication US5674876A, “.rho.-heteroatom-substituted phenols and uses thereof” (Research Development Foundation, priority 1995, dated 1997) can be followed below.

What all share (type): cell-based
Common to all, as to design: key to Inhibition (%) of DNA synthesis: TOXIC (viability): TOXIC: the compound at this concentration killed the cells or greatly lowered their viability

The test system of data set [1] is HL-60 (Human Promyelocytic Leukemia Cell Line). Description: Inhibition of DNA synthesis (3H-TdR uptake) / proliferation, HL-60. As to conditions: for inhibition at 0.1 µg/mL / inhibition at 1 µg/mL / inhibition at 5 µg/mL / inhibition at 10 µg/mL / inhibition at 20 µg/mL: Homo sapiens; for inhibition at 0.1 µg/mL: HL-60, 0.1 μg/mL; for inhibition at 1 µg/mL: HL-60, 1 μg/mL; for inhibition at 5 µg/mL: HL-60, 5 μg/mL. The method, then: (§1) Cells were cultured in the following media: 1) MDA MB 435 cells were cultured in Minimum Essential Media (MEM-HyClone, Logan, Utah) supplemented with 5% heat inactivated fetal bovine serum (HyClone), 2 mM glutamine (Sigma, St. Louis, Mo.), 1 mM sodium pyruvate (Sigma), 1X MEM Non-Essential Amino Acids (Sigma), 2X MEM Vitamins (Sigma), and 100 IU/mL penicillin/100 μg/mL streptomycin (HyClone); 2) MCF-7 McGuire cells were cultured in Minimum Essential Media (MEM-HyClone, Logan, Utah) supplemented with 5% heat inactivated fetal bovine serum (HyClone), 2 mM glutamine (Sigma, St. Louis, Mo.), and 100 IU/mL penicillin/100 μg/mL streptomycin (HyClone); 3) HL-60 cells were cultured in Iscoves Modified Dulbecco's Media (IMDM-HyClone, Logan, Utah) supplemented with 5% heat inactivated fetal bovine serum (HyClone), 2 mM glutamine (Sigma, St. Louis, Mo.), 1 mM sodium pyruvate (Sigma), 1X MEM Non-Essential Amino Acids (Sigma), 2X MEM Vitamins (Sigma), and 100 IU/mL penicillin/100 μg/mL streptomycin (HyClone); 2) MCF-7 McGuire cells were cultured in Minimum Essential Media (MEM-HyClone, Logan, Utah) supplemented with 5% heat inactivated fetal bovine serum (HyClone), 2 mM glutamine (Sigma, St. Louis, Mo.), and 100 IU/mL penicillin/100 μg/mL streptomycin (HyClone); 3) HL-60 cells were cultured in Iscoves Modified Dulbecco's Media (IMDM-HyClone, Logan, Utah) supplemented with 5% heat inactivated fetal bovine serum (HyClone), 2 mM glutamine (Sigma, St. Louis, Mo.), and 100 IU/mL penicillin/100 μg/mL streptomycin (HyClone).
(§2) All compounds were handled as if they were light sensitive. All compounds were initially dissolved in absolute ethanol and subsequently diluted to a final concentration of 0.5% ethanol with the appropriate medium.
(§3) For the bioassay, all cells were used at 2.5×10^5 /mL. Cells were treated with each of the compounds at concentrations of 20, 10, 5, 1, 0.1, and 0.01 μg/mL , and 200 μl of each treatment group were plated in quadruplicate in a 96 well culture plate (Corning, Corning N.Y.). Plates were done in duplicate, one plate to be used for viability testing and the other plate to examine ^3 H-TdR uptake (DNA synthesis).
(§4) Plates were cultured for 48 hours at 37° C., 5% CO2. Eight hours prior to the end of incubation, ^3 H-TdR was added to one of the duplicate plates and incubation continued for 8 hours. The cells were then harvested (trypsinization was required to harvest MDA MB 435 and MCF-7 McGuire). At the end of the incubation, the cells were removed from the wells (of the duplicate plate--no radioisotope added) and viability checked by the Trypan Blue Exclusion method. Percent viability and percent suppression of each treatment group were calculated.
(§5) With respect to the data shown in the Tables below, the data is arranged from greatest percent inhibition of DNA synthesis to lowest. […] "NT" refers to "Not Tested". The cells were cultured for 48 hours, pulsed 8 hours with tritiated thymidine, harvested and counted. MDA MB 435 is the abbreviation for the Metastic Human Breast Cancer Cell Line. MCF-7 McGuire is the abbreviation for the Estrogen Responsive Human Breast Cancer Cell Line and HL-60 is the Human Promyelocytic Leukemia Cell Line.

The subject of data set [2] is MDA MB 435 (Metastic Human Breast Cancer Cell Line). Nature of the data set: Inhibition of DNA synthesis (3H-TdR uptake) / proliferation, MB-435. As to conditions: for inhibition at 0.1 µg/mL / inhibition at 1 µg/mL / inhibition at 5 µg/mL / inhibition at 10 µg/mL / inhibition at 20 µg/mL: Homo sapiens, MDA-MB-435; for inhibition at 0.1 µg/mL: MB-435, 0.1 μg/mL; for inhibition at 0.1 µg/mL / inhibition at 1 µg/mL / inhibition at 5 µg/mL / inhibition at 10 µg/mL / inhibition at 20 µg/mL / Inhibition (%) of DNA synthesis: TOXIC (viability): 48 h; for inhibition at 1 µg/mL: MB-435, 1 μg/mL. The procedure:
as §1, §2, §3, §4, §5

The subject of data set [3] is MCF-7 McGuire (Estrogen Responsive Human Breast Cancer Cell Line). Nature of the data set: Inhibition of DNA synthesis (3H-TdR uptake) / proliferation, MCF-7. As to conditions: for inhibition at 0.1 µg/mL / inhibition at 1 µg/mL / inhibition at 5 µg/mL / inhibition at 10 µg/mL / inhibition at 20 µg/mL: Homo sapiens, MCF7; for inhibition at 0.1 µg/mL: MCF-7, 0.1 μg/mL; for inhibition at 1 µg/mL: MCF-7, 1 μg/mL; for inhibition at 5 µg/mL: MCF-7, 5 μg/mL. The method, then: as §1, §2, §3, §4, §5

Consider `CC(=O)Oc1c(C)cc2c(c1C)C(C)CN2C(=O)C(C)C` (stereo not drawn) [Compound 12b, N-Isobutyryl-5-acetoxy-3,4,6-trimethylindoline], for which the “inhibition of proliferation (in words)” value was “significantly inhibited the proliferation” in data set [1] (HL-60, 5-20 μg/mL); “significantly inhibited the proliferation” in data set [2] (MB-435, 5-20 μg/mL); “significantly inhibited the proliferation” in data set [3] (MCF-7, 5-20 μg/mL). The inhibition at 0.1 µg/mL in data set [1] (48 h) was found to be 0%; in data set [2], 1%; in data set [3] (48 h), 20%. Further, the inhibition at 1 µg/mL is 2% in data set [1] (48 h), 19% in data set [2] and 47% in data set [3] (48 h). The inhibition at 5 µg/mL in data set [1] (48 h) is 32%; in data set [2] (MB-435, 5 μg/mL), 32%; in data set [3] (48 h) it was 38%. For the same compound, the inhibition at 10 µg/mL in data set [1] (HL-60, 10 μg/mL, 48 h) was 67%; in data set [2] (MB-435, 10 μg/mL) it was 24%; in data set [3] (MCF-7, 10 μg/mL, 48 h), 58%. Further, the inhibition at 20 µg/mL stood at 46% in data set [1] (HL-60, 20 μg/mL, 48 h); 41% in data set [2] (MB-435, 20 μg/mL); 70% in data set [3] (MCF-7, 20 μg/mL, 48 h).
For the compound `CC(=O)Oc1c(C)c2c3c(c1C)CCCN3CCC2` [Compound 6, 9-Acetoxy-8,10-dimethyljulolidine], the “inhibition of proliferation (in words)” value is given as “significantly inhibited the proliferation” in data set [1] (HL-60, 10 μg/mL); “significantly inhibited the proliferation” in data set [2] (MB-435, 5 μg/mL); “significantly inhibited the proliferation” in data set [2] (MB-435, 10-20 μg/mL); “significantly inhibited the proliferation” in data set [3] (MCF-7, 10 μg/mL); “significantly inhibited the proliferation” in data set [3] (MCF-7, 10-20 μg/mL). The “Inhibition (%) of DNA synthesis: TOXIC (viability)” value is “TOXIC” in data set [1] (HL-60, 20 μg/mL, 48 h); “TOXIC” in data set [2] (MB-435, 10 μg/mL); “TOXIC” in data set [2] (MB-435, 20 μg/mL); “TOXIC” in data set [3] (MCF-7, 20 μg/mL, 48 h). Besides, in data set [1] (HL-60, no dose stated), the “effect on HL-60 cells (in words)” value is given as “virtually no effect”. The inhibition at 0.1 µg/mL in data set [1] (48 h) worked out at 3%; in data set [2], 3%; in data set [3] (48 h) it was 0%. The inhibition at 1 µg/mL in data set [1] (48 h) is 24%; in data set [2], 0%; in data set [3] (48 h) it was 10%. The inhibition at 5 µg/mL came to 59% in data set [1] (48 h); 80% in data set [2] (MB-435, 5 μg/mL); 13% in data set [3] (48 h). The inhibition at 10 µg/mL worked out at 89% in data set [1] (HL-60, 10 μg/mL, 48 h) and 37% in data set [3] (MCF-7, 10 μg/mL, 48 h).
On to `Cc1cc2c(C)c(O)c(C)c(C)c2o1` [Compound 33, 5-Hydroxy-2,4,6,7-tetramethylbenzofuran], for which the “inhibition of proliferation (in words)” value is “significantly inhibited the proliferation” in data set [1] (HL-60, 20 μg/mL); “significantly inhibited the proliferation” in data set [2] (MB-435, 20 μg/mL); “significantly inhibited the proliferation” in data set [3] (MCF-7, 20 μg/mL). The inhibition at 0.1 µg/mL in data set [1] (48 h) amounted to 0%; in data set [2], 1%; in data set [3] (48 h), 19%. Besides, the inhibition at 1 µg/mL in data set [1] (48 h) stood at 0%; in data set [2] it was 2%; in data set [3] (48 h), 0%. Besides, the inhibition at 5 µg/mL came out at 0% in data set [1] (48 h); 8% in data set [2] (MB-435, 5 μg/mL); 0% in data set [3] (48 h). For the same compound, the inhibition at 10 µg/mL in data set [1] (HL-60, 10 μg/mL, 48 h) came out at 7%; in data set [2] (MB-435, 10 μg/mL) it was 16%; in data set [3] (MCF-7, 10 μg/mL, 48 h), 16%. For the same compound, the inhibition at 20 µg/mL worked out at 36% in data set [1] (HL-60, 20 μg/mL, 48 h); 42% in data set [2] (MB-435, 20 μg/mL); 72% in data set [3] (MCF-7, 20 μg/mL, 48 h).
Consider `CC(=O)N1CC(C)(C)c2c(C)c(O)c(C)c(C)c21` [Compound 31b], for which the “inhibition of proliferation (in words)” value is on record as “significantly inhibited the proliferation” in data set [1] (HL-60, 10-20 μg/mL); “significantly inhibited the proliferation” in data set [2] (MB-435, 10-20 μg/mL); “significantly inhibited the proliferation” in data set [3] (MCF-7, 10-20 μg/mL). Also, the inhibition at 0.1 µg/mL in data set [1] (48 h), in data set [2] and in data set [3] (48 h) was 0% in each case. Also, the inhibition at 1 µg/mL in data set [1] (48 h), in data set [2] and in data set [3] (48 h) was 0% in each case. In addition, the inhibition at 5 µg/mL amounted to 6% in data set [1] (48 h); 0% in data set [2] (MB-435, 5 μg/mL); 29% in data set [3] (48 h). Besides, the inhibition at 10 µg/mL worked out at 15% in data set [1] (HL-60, 10 μg/mL, 48 h); 15% in data set [2] (MB-435, 10 μg/mL); 18% in data set [3] (MCF-7, 10 μg/mL, 48 h). In addition, the inhibition at 20 µg/mL was 28% in data set [1] (HL-60, 20 μg/mL, 48 h); 33% in data set [2] (MB-435, 20 μg/mL); 22% in data set [3] (MCF-7, 20 μg/mL, 48 h).
On to `Cc1c(C)c2c(c(C)c1O)CC1(CC1)O2` [Compound 32], for which the “inhibition of proliferation (in words)” value in data set [1] (HL-60, 10-20 μg/mL) was “significantly inhibited the proliferation”; in data set [2] (MB-435, 10-20 μg/mL), “significantly inhibited the proliferation”; in data set [3] (MCF-7, 10-20 μg/mL), “significantly inhibited the proliferation”. In addition, the inhibition at 0.1 µg/mL in data set [1] (48 h) amounted to 11%; in data set [2] it was 6%; in data set [3] (48 h) it was 0%. Further, the inhibition at 1 µg/mL in data set [1] (48 h) stood at 5%; in data set [2] it was 6%; in data set [3] (48 h), 10%. Moreover, the inhibition at 5 µg/mL in data set [1] (48 h) is 12%; in data set [2] (MB-435, 5 μg/mL), 15%; in data set [3] (48 h), 5%. In addition, the inhibition at 10 µg/mL in data set [1] (HL-60, 10 μg/mL, 48 h) came out at 17%; in data set [2] (MB-435, 10 μg/mL), 30%; in data set [3] (MCF-7, 10 μg/mL, 48 h), 18%. The inhibition at 20 µg/mL came out at 26% in data set [1] (HL-60, 20 μg/mL, 48 h); 43% in data set [2] (MB-435, 20 μg/mL); 22% in data set [3] (MCF-7, 20 μg/mL, 48 h).

Usually inhibition stands for the drop in the measured response relative to a control, in per cent.
